This test has as its system rodents. Briefly: effectiveness of respiratory irritants in the foam in hastening the death of rodents. To be noted: rodents that inhaled the foam/irritant combination. It counts as in vivo. As to the method:
Furthermore, it is available in commercial quantities in a finely ground form which disperses quickly and evenly into the concentrated foaming agent and remains suspended as the foaming agent is diluted and aerated. Alternative respiratory irritants may share all of or many of these characteristics and include ground horseradish and powdered elemental sulphur.
In the preferred embodiment, a concentrated composition is made by mixing the foaming agent in liquid concentrate form with the mustard powder, preferably in an approximate 3:1 ratio by weight, with the goal of achieving a 1% (w:v) foaming agent concentration and approximately 0.3% to 0.5% (w:v) mustard concentration when the concentrate is diluted to a use level. The proprietary concentrated foaming agents have specific gravities of approximately 1.029 kg per liter and it is generally recommended by the respective manufacturers that it be used in 0.1% to 1% concentration.

The record followed here is patent US7070767B2, “Fossorial rodent control compositions and methods” (priority 1998, dated 2006).

In the case of `[S]` [powdered elemental sulphur, elemental sulphur], the “effectiveness as respiratory irritant in the foam” value is reported as “effective but less so than the ground mustard”.
